Activity calls are given as the source filed them. No cut-off for these calls is given here.
Key:
[1] = biological target: T1, Protein cereblon/Bromodomain-containing protein 3 (Homo sapiens) (UniProt Q15059+Q96SW2); experiment: In vivo PROTAC activity at CRBN/BRD3 in SCID mouse xenografted with human MM1.S cells assessed as reduction in BRD3 protein level in tumor at 1 to 5 mg/kg, iv measured after 6 hrs by Western blot analysis; assay type: functional, organism-based; conditions: dose 1-5 mg/kg
[2] = biological target: T2, Protein cereblon/Bromodomain-containing protein 4 (Homo sapiens) (UniProt O60885+Q96SW2); experiment: In vivo PROTAC activity at CRBN/BRD4-L in SCID mouse xenografted with human MM1.S cells assessed as reduction in BRD4-L protein level in tumor at 1 to 5 mg/kg, iv measured after 6 hrs by Western blot analysis; assay type: functional, organism-based; conditions: dose 1-5 mg/kg
[3] = biological target: T2, Protein cereblon/Bromodomain-containing protein 4 (Homo sapiens); experiment: PROTAC activity at CRBN/BRD4-L in human MM1.S cells assessed as induction of protein degradation at 1 uM measured after 1 to 24 hrs by Western blot analysis; assay type: cell-based; conditions: time 1-24 hrs
[4] = Cmax in C57 mouse at 3 mg/kg, iv measured upto 24 hrs by LC-MS/MS analysis; assay type: ADME, organism-based; parameters: dose 3 mg/kg, time < 24 hrs, route iv; conditions: in vivo
[5] = system: MM1.S; experiment: Antitumor activity against human MM1.S cells xenografted in SCID mouse assessed as tumor growth inhibition at 5 mg/kg, iv administered once daily via tail vein for 8 consecutive days and measured twice a week relative to control; assay type: functional; conditions: 192 h, time 8 day, read-out: TGI
[6] = Clearance in C57 mouse at 3 mg/kg, iv measured upto 24 hrs by LC-MS/MS analysis; assay type: ADME, organism-based; conditions: in vivo
[7] = system: MM1.S; experiment: Antitumor activity against human MM1.S cells xenografted in SCID mouse assessed as tumor growth inhibition at 1 mg/kg, iv administered once daily via tail vein for 14 consecutive days and measured twice a week relative to control; assay type: functional; conditions: 336 h, time 14 day, read-out: TGI
[8] = Oral bioavailability in C57 mouse at 3 mg/kg measured upto 24 hrs by LC-MS/MS analysis; assay type: ADME, organism-based; conditions: in vivo
[9] = Toxicity in SCID mouse xenografted with human MM1.S cells assessed as loss of body weight at 5 mg/kg, iv administered once daily via tail vein for 8 consecutive days and measured twice a week; assay type: organism-based; conditions: in vivo, 192 h, time 8 day
[10] = system: MM1.S; experiment: Downregulation of c-Myc expression in human MM1.S cells at 30 nM measured after 1 to 24 hrs by Western blot analysis; assay type: functional, cell-based; conditions: time 1-24 hrs
[11] = biological target: T2, Protein cereblon/Bromodomain-containing protein 4 (Homo sapiens); experiment: In vivo PROTAC activity at CRBN/BRD4-S in SCID mouse xenografted with human MM1.S cells assessed as reduction in BRD4-S protein level in tumor at 1 to 5 mg/kg, iv measured after 6 hrs by Western blot analysis; assay type: functional, organism-based; conditions: dose 1-5 mg/kg
[12] = biological target: T2, Protein cereblon/Bromodomain-containing protein 4 (Homo sapiens); experiment: In vivo PROTAC activity at CRBN/BRD4-L in SCID mouse xenografted with human MM1.S cells assessed as reduction in BRD4-L protein level in tumor at 5 mg/kg, iv measured after 24 hrs by Western blot analysis; assay type: functional, organism-based
[13] = biological target: T3, Protein cereblon/Bromodomain-containing protein 2 (Homo sapiens) (UniProt P25440+Q96SW2); experiment: In vivo PROTAC activity at CRBN/BRD2 in SCID mouse xenografted with human MM1.S cells assessed as reduction in BRD2 protein level in tumor at 5 mg/kg, iv measured after 24 hrs by Western blot analysis; assay type: functional, organism-based
[14] = Clearance in C57 mouse at 3 mg/kg, po measured upto 24 hrs by LC-MS/MS analysis; assay type: ADME, organism-based; conditions: in vivo
[15] = system: MV4-11; experiment: Antiproliferative activity against human MV4-11 cells assessed as cell growth inhibition measured after 3 days by CellTitre-Glo assay; assay type: functional, cell-based; conditions: MV4-11, 72 h
[16] = biological target: T1, Protein cereblon/Bromodomain-containing protein 3 (Homo sapiens); experiment: In vivo PROTAC activity at CRBN/BRD3 in SCID mouse xenografted with human MM1.S cells assessed as reduction in BRD3 protein level in tumor at 1 mg/kg, iv measured after 24 hrs by Western blot analysis; assay type: functional, organism-based
[17] = AUC (0 to t) in C57 mouse at 3 mg/kg, iv measured upto 24 hrs by LC-MS/MS analysis; assay type: ADME, organism-based; parameters: dose 3 mg/kg, time < 24 hrs, route iv; conditions: in vivo
[18] = system: MM1.S; experiment: Downregulation of c-Myc protein expression in human MM1.S cells at 0.1 to 30 nM measured after 24 hrs by Western blot analysis; assay type: functional, cell-based; conditions: dose 0.1-30 nM
[19] = biological target: T4, Bromodomain-containing protein 3 (Homo sapiens, UniProt Q15059); experiment: Binding affinity to recombinant human BRD3 BD2 (306 to 417 residues) assessed as inhibition constant by fluorescence polarization binding assay
[20] = Cmax in C57 mouse at 3 mg/kg, po measured upto 24 hrs by LC-MS/MS analysis; assay type: ADME, organism-based; parameters: dose 3 mg/kg, time < 24 hrs, route po; conditions: in vivo
[21] = Half life in C57 mouse at 3 mg/kg, iv measured upto 24 hrs by LC-MS/MS analysis; assay type: ADME, organism-based; conditions: in vivo
[22] = system: MM1.S; experiment: Induction of cell cycle arrest in human MM1.S cells assessed as accumulation of cells at G1 phase incubated for 24 hrs by flow cytometry analysis; assay type: functional, cell-based; conditions: dose 1-300 nM
[23] = biological target: T3, Protein cereblon/Bromodomain-containing protein 2 (Homo sapiens); experiment: In vivo PROTAC activity at CRBN/BRD2 in SCID mouse xenografted with human MM1.S cells assessed as reduction in BRD2 protein level in tumor at 1 to 5 mg/kg, iv measured after 6 hrs by Western blot analysis; assay type: functional, organism-based; conditions: dose 1-5 mg/kg
[24] = biological target: T3, Protein cereblon/Bromodomain-containing protein 2 (Homo sapiens); experiment: PROTAC activity at CRBN/BRD2 in human MM1.S cells assessed as induction of protein degradation at 1 uM measured after 1 to 24 hrs by Western blot analysis; assay type: cell-based; conditions: time 1-24 hrs
[25] = biological target: T1, Protein cereblon/Bromodomain-containing protein 3 (Homo sapiens); experiment: PROTAC activity at CRBN/BRD3 in human MM1.S cells assessed as induction of protein degradation at 30 nM by Western blot analysis; assay type: cell-based; conditions: TDE = time-dependent effect
[26] = biological target: T4, Bromodomain-containing protein 3; experiment: Binding affinity to recombinant human BRD3 BD1 (24 to 144 residues) assessed as inhibition constant by fluorescence polarization binding assay
[27] = system: MM1.S; experiment: Antiproliferative activity against human MM1.S cells assessed as cell growth inhibition measured after 4 days by CellTitre-Glo assay; assay type: functional, cell-based; conditions: 96 h
[28] = biological target: T2, Protein cereblon/Bromodomain-containing protein 4 (Homo sapiens); experiment: PROTAC activity at CRBN/BRD4-S in human MM1.S cells assessed as induction of protein degradation at 1 uM measured after 1 to 24 hrs by Western blot analysis; assay type: cell-based; conditions: time 1-24 hrs
[29] = AUC (0 to t) in C57 mouse at 3 mg/kg, po measured upto 24 hrs by LC-MS/MS analysis; assay type: ADME, organism-based; parameters: time < 24 hrs, dose 3 mg/kg, route po; conditions: in vivo
[30] = biological target: T2, Protein cereblon/Bromodomain-containing protein 4 (Homo sapiens); experiment: In vivo PROTAC activity at CRBN/BRD4-S in SCID mouse xenografted with human MM1.S cells assessed as reduction in BRD4-S protein level in tumor at 5 mg/kg, iv measured after 24 hrs by Western blot analysis; assay type: functional, organism-based
[31] = Tmax in C57 mouse at 3 mg/kg, iv measured upto 24 hrs by LC-MS/MS analysis; assay type: ADME, organism-based; conditions: in vivo
[32] = biological target: T2, Protein cereblon/Bromodomain-containing protein 4 (Homo sapiens); experiment: PROTAC activity at CRBN/BRD4-L in human MM1.S cells assessed as induction of protein degradation at 30 nM by Western blot analysis; assay type: cell-based; conditions: TDE = time-dependent effect
[33] = biological target: T1, Protein cereblon/Bromodomain-containing protein 3 (Homo sapiens); experiment: PROTAC activity at CRBN/BRD3 in human MM1.S cells assessed as induction of protein degradation at 1 uM measured after 1 to 24 hrs by Western blot analysis; assay type: cell-based; conditions: time 1-24 hrs
[34] = Tmax in C57 mouse at 3 mg/kg, po measured upto 24 hrs by LC-MS/MS analysis; assay type: ADME, organism-based; conditions: in vivo
[35] = biological target: T1, Protein cereblon/Bromodomain-containing protein 3 (Homo sapiens); experiment: In vivo PROTAC activity at CRBN/BRD3 in SCID mouse xenografted with human MM1.S cells assessed as reduction in BRD3 protein level in tumor at 5 mg/kg, iv measured after 24 hrs by Western blot analysis; assay type: functional, organism-based
[36] = Toxicity in SCID mouse xenografted with human MM1.S cells assessed as effect on body weight at 1 mg/kg, iv administered once daily via tail vein for 14 consecutive days and measured twice a week; assay type: organism-based; conditions: in vivo, 336 h, time 14 day

T2 sequence (Q96SW2 whole entry, looked up, other chains not shown): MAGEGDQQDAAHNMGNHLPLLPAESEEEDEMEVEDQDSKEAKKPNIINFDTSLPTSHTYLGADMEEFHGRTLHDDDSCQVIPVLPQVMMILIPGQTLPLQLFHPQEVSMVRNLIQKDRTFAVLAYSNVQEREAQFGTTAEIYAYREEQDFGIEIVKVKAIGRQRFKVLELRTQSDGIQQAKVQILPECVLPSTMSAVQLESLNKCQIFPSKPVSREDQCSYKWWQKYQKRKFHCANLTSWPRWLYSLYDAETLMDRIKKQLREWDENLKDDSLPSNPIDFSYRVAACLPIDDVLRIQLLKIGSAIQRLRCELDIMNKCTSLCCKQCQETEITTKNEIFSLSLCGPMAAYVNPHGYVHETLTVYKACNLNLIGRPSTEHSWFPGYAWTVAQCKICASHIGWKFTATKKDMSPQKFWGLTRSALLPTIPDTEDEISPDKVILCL
T1 sequence (Q15059 2-726 limits assumed): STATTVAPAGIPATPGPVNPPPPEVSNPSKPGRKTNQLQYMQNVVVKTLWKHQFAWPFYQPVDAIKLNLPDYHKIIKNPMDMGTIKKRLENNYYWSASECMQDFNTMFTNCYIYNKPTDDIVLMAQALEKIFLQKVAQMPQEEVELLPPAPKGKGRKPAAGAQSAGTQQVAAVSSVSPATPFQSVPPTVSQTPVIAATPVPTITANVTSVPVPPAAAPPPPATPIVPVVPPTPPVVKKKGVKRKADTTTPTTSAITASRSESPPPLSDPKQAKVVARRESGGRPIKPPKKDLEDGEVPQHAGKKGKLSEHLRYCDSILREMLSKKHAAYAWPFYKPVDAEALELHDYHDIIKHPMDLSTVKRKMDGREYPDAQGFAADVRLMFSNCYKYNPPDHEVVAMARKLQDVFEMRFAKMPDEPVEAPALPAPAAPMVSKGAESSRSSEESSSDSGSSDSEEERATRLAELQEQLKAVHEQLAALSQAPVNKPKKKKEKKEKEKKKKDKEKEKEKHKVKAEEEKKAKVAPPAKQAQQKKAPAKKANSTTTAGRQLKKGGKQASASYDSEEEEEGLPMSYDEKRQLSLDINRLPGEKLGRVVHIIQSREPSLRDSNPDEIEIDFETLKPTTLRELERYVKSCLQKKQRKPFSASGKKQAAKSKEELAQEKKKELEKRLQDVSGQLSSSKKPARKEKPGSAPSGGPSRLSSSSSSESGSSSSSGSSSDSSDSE
T1 sequence (Q96SW2 whole entry partner): as the sequence (Q96SW2 whole entry, looked up, other chains not shown) above
T3 sequence (P25440 whole entry, looked up): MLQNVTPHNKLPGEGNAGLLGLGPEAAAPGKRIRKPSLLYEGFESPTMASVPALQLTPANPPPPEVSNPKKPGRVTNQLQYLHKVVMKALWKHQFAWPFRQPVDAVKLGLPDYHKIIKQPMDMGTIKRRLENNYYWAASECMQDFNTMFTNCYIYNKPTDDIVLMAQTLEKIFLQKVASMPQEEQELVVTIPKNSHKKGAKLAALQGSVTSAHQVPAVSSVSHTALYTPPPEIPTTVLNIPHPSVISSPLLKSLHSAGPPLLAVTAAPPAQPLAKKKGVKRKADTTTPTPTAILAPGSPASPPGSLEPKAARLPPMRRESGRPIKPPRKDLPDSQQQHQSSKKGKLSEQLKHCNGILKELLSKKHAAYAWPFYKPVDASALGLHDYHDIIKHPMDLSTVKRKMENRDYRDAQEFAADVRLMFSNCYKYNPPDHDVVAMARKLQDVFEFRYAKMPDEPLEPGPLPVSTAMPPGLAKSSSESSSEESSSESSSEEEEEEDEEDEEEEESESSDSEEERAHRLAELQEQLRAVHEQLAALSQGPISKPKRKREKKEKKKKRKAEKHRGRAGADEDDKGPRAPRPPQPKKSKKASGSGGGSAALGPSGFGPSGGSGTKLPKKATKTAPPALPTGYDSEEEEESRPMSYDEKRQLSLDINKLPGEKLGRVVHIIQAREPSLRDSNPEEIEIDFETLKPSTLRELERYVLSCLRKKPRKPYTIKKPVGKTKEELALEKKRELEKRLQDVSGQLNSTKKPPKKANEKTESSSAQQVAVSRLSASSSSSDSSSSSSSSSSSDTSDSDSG
T3 sequence (Q96SW2 whole entry, looked up): as the sequence (Q96SW2 whole entry, looked up, other chains not shown) above
T4 sequence (Q15059 whole entry, the tested form may be a part): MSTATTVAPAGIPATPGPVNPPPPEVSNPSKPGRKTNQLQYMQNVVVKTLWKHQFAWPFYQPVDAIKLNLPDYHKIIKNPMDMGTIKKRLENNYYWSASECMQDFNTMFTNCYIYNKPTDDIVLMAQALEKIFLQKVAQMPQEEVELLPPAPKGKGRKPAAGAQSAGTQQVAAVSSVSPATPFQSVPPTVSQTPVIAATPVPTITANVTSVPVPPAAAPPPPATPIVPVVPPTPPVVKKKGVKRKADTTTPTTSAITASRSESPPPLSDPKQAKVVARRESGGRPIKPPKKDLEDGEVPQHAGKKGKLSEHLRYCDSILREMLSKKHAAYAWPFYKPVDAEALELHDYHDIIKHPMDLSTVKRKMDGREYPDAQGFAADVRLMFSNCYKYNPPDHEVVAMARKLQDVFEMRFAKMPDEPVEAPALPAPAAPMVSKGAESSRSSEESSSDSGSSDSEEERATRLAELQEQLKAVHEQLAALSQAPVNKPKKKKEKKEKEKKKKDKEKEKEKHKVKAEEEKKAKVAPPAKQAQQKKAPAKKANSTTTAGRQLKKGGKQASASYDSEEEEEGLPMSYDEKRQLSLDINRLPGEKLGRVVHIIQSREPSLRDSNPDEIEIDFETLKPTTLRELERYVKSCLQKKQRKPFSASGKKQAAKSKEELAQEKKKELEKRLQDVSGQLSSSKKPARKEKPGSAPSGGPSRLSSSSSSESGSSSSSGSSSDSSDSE

With Cc1nnc2n1-c1ccc(-c3ccc(CN(C)CCCCc4cccc5c4CN(C4CCC(=O)NC4=O)C5=O)cc3)cc1C(Nc1ccc(Cl)cc1)CC2 (stereo unspecified) the Activity [1] was “Active”, the Activity [2] was “Active” and the Activity [3] was “Active”. For the same molecule, the Cmax [4] was 7410 ng/mL, the inhibition in vivo at 5 mg/kg [5] was 64% and the clearance [6] was 16.9 mL/min/kg. For the same molecule, the inhibition in vivo at 1 mg/kg [7] was 40%, the F [8] was 2.14% and the Activity [9] was “Toxic”. For the same molecule, the Activity [10] was “Active”, the Activity [11] was “inactive” and the Activity [12] was “inactive”. The Activity [13] was “inactive”, the CL/F [14] was 1240 mL/min/kg and the IC50 [15] was 7.46 nM. The Activity [16] was “inactive”, the AUCt [17] was 2961 ng·h/mL and the Activity [18] was “Active”. For the same molecule, the Ki [19] was 2.8 nM, the Cmax [20] was 51 ng/mL and the half-life [21] was 30 min. The Activity [22] was “Dose-Dependent Effect”, the Activity [23] was “inactive” and the Activity [24] was “Active”. The Activity [25] was “Tde”, the Ki [26] was 16.9 nM and the IC50 [27] was 85.4 nM. The Activity [28] was “inactive”, the AUCt [29] was 26 ng·h/mL and the Activity [30] was “inactive”. The Tmax [31] was 6 min, the Activity [32] was “Tde” and the Activity [33] was “Active”. The Tmax [34] was 24 min, the Activity [35] was “Active” and the Activity [36] was “Non-Toxic”.

Reference: ChEMBL document CHEMBL5321219, “Selective degradation of cellular BRD3 and BRD4-L promoted by PROTAC molecules in six cancer cell lines” (Eur J Med Chem, 2023)
